The record followed here is US20240067632A1, “WEE1 Degrading Compounds and Uses Thereof” (Bristol-Myers Squibb Company, priority 2022, published 2024).

Some results are limits rather than exact numbers.

What is called EC50 is the concentration at which the effect is half-maximal.

In one assay the target is T1, WEE1 (Homo sapiens, UniProt P30291+Q96SW2).
T1 construct: C-terminal ePL-tagged (DiscoverX, Fremont, CA) full-length WEE1 expression construct; expressed in transfected cells; host or cells: LentiX-HEK293T (Invitrogen), lentiviral transduction; co-expressing GSPT1-GN (G576N, lacking the first 158 amino acids)
The assay can be described thus: WEE1-ePL degradation assay (LentiX-WEE1-ePL-GSPT1-ND cells, InCELL Hunter luminescence, 4 h). In kind it is cell-based. Conditions: 293T-LentiX WEE1-ePL cells; for 293T-LentiX WEE1-ePL Degradation 4 hr (Ymin): lower limit of the fit (0 = luciferase inhibitor, Ymax = DMSO control); for DC50: read-out: 293T-LentiX WEE1-ePL Degradation 4 hr (EC50). The gist of the method:
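Luminescent readout (InCELL Hunter, 30 min RT) of WEE1-ePL levels in transduced HEK293T cells after 4 h compound exposure at 37 °C. Dosing: 10 points, 3-fold steps, top 1 uM or 10 uM. EC50 from four-parameter logistic fit; Ymax set by DMSO.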

The next assay relates to MKN45 cells. The assay can be described thus: MKN45 cell proliferation assay (Cell-Titer-Glo, 120 h). The class given is cell-based. As to conditions: for EC50: Homo sapiens, MKN-45, 120 h, Cell-Titer-Glo, growth inhibition, read-out: MKN45 Cell Prolif. 120 hr (EC50); for MKN45 Cell Prolif. 120 hr (Ymin-Obs): minimal percent of DMSO control observed in the concentrations tested. A digest of the protocol: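 Cells seeded at 400/well onto pre-printed 10-point half-log dilutions (top 1 or 10 uM, 0.1% DMSO final), in triplicate, and grown 120 h at 37 C. Viability by Cell-Titer-Glo luminescence, blank-subtracted and normalised to DMSO; EC50 from four-parameter logistic fit, with observed minimal % of control recorded as Ymin-obs.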

As for `COc1cncc(CN2CC[C@H](Oc3ccc4c(c3)CN(C3CCC(=O)NC3=O)C4=O)C2)c1C` (stereo partly drawn) [3-(5-{[(3S)-1-[(5-methoxy-4-methylpyridin-3-yl)methyl]pyrrolidin-3-yl]oxy}-1-oxo-2,3-dihydro-1H-isoindol-2-yl)piperidine-2,6-dione], on WEE1, the “293T-LentiX WEE1-ePL Degradation 4 hr (Ymin)” value worked out at 61 and the DC50 was determined as 28.5 nM. Besides, in the assay on MKN45 cells, the EC50 was 833 nM and the “MKN45 Cell Prolif. 120 hr (Ymin-Obs)” value worked out at 59.99.

With `COc1cncc(CN2CC[C@H](Oc3ccc4c(c3)CN(C3CCC(=O)NC3=O)C4=O)C2)c1` (stereo partly drawn) [3-(5-{[(3S)-1-[(5-methoxypyridin-3-yl)methyl]pyrrolidin-3-yl]oxy}-1-oxo-2,3-dihydro-1H-isoindol-2-yl)piperidine-2,6-dione], on WEE1, the “293T-LentiX WEE1-ePL Degradation 4 hr (Ymin)” value was 37.55 and the DC50 was 61.4 nM. Moreover, in the assay on MKN45 cells, the concentration giving a half-maximal response (EC50) was 3320 nM and the “MKN45 Cell Prolif. 120 hr (Ymin-Obs)” value amounted to 48.12.

On to `Cc1cccc2cnc(CN3CC[C@H](Oc4ccc5c(c4)CN(C4CCC(=O)NC4=O)C5=O)C3)cc12` (stereo partly drawn) [3-(5-{[(3S)-1-[(5-methylisoquinolin-3-yl)methyl]pyrrolidin-3-yl]oxy}-1-oxo-2,3-dihydro-1H-isoindol-2-yl)piperidine-2,6-dione], for which, on WEE1, the “293T-LentiX WEE1-ePL Degradation 4 hr (Ymin)” value was 31.91 and the DC50 was found to be 4.62 nM. In the assay on MKN45 cells, the concentration giving a half-maximal response (EC50) was 86.1 nM and the “MKN45 Cell Prolif. 120 hr (Ymin-Obs)” value is reported as 19.01.

As to `Cc1cccc2ncc(CN3CC[C@H](Oc4ccc5c(c4)CN(C4CCC(=O)NC4=O)C5=O)C3)cc12` (stereo partly drawn) [3-(5-{[(3S)-1-[(5-methylquinolin-3-yl)methyl]pyrrolidin-3-yl]oxy}-1-oxo-2,3-dihydro-1H-isoindol-2-yl)piperidine-2,6-dione], on WEE1, the “293T-LentiX WEE1-ePL Degradation 4 hr (Ymin)” value turned out to be 26.805 and the DC50 turned out to be 5.31 nM. Besides, in the assay on MKN45 cells, the EC50 was found to be 37 nM and the “MKN45 Cell Prolif. 120 hr (Ymin-Obs)” value is 12.09.

As for `O=C1CCC(N2Cc3cc(O[C@H]4CCN(Cc5cnc6ccc(F)cc6c5)C4)ccc3C2=O)C(=O)N1` (stereo partly drawn) [3-(5-{[(3S)-1-[(6-fluoroquinolin-3-yl)methyl]pyrrolidin-3-yl]oxy}-1-oxo-2,3-dihydro-1H-isoindol-2-yl)piperidine-2,6-dione], at WEE1, the “293T-LentiX WEE1-ePL Degradation 4 hr (Ymin)” value came to 30.015 and the DC50 is 9.19 nM. In the assay with MKN45 cells, the concentration giving a half-maximal response (EC50) worked out at 64.5 nM and the “MKN45 Cell Prolif. 120 hr (Ymin-Obs)” value is listed as 16.03.

As for `CN1CCc2ncc(CN3CC[C@H](Oc4ccc5c(c4)CN(C4CCC(=O)NC4=O)C5=O)C3)cc2C1` (stereo partly drawn) [3-(5-{[(3S)-1-[(6-methyl-5,6,7,8-tetrahydro-1,6-naphthyridin-3-yl)methyl]pyrrolidin-3-yl]oxy}-1-oxo-2,3-dihydro-1H-isoindol-2-yl)piperidine-2,6-dione], at WEE1, the “293T-LentiX WEE1-ePL Degradation 4 hr (Ymin)” value is reported as 34 and the DC50 was found to be 216 nM. In the assay with MKN45 cells, the EC50 turned out to be 5050 nM and the “MKN45 Cell Prolif. 120 hr (Ymin-Obs)” value is 33.405.

Regarding `Cc1ccc2ncc(CN3CC[C@H](Oc4ccc5c(c4)CN(C4CCC(=O)NC4=O)C5=O)C3)cc2c1` (stereo partly drawn) [3-(5-{[(3S)-1-[(6-methylquinolin-3-yl)methyl]pyrrolidin-3-yl]oxy}-1-oxo-2,3-dihydro-1H-isoindol-2-yl)piperidine-2,6-dione], on WEE1, the “293T-LentiX WEE1-ePL Degradation 4 hr (Ymin)” value was determined as 29.6 and the DC50 is 9.38 nM. In addition, in the assay on MKN45 cells, the concentration giving a half-maximal response (EC50) came to 33.6 nM and the “MKN45 Cell Prolif. 120 hr (Ymin-Obs)” value is on record as 13.08.

As for `O=C1CCC(N2Cc3cc(O[C@H]4CCN(Cc5cc6ccc(F)cc6cn5)C4)ccc3C2=O)C(=O)N1` (stereo partly drawn) [3-(5-{[(3S)-1-[(7-fluoroisoquinolin-3-yl)methyl]pyrrolidin-3-yl]oxy}-1-oxo-2,3-dihydro-1H-isoindol-2-yl)piperidine-2,6-dione], at WEE1, the “293T-LentiX WEE1-ePL Degradation 4 hr (Ymin)” value was 28.82 and the DC50 came out at 4.93 nM. Also, in the assay with MKN45 cells, the EC50 worked out at 24.8 nM and the “MKN45 Cell Prolif. 120 hr (Ymin-Obs)” value stood at 10.88.

`COc1ccc2cc(CN3CC[C@H](Oc4ccc5c(c4)CN(C4CCC(=O)NC4=O)C5=O)C3)nnc2c1` (stereo partly drawn) [3-(5-{[(3S)-1-[(7-methoxycinnolin-3-yl)methyl]pyrrolidin-3-yl]oxy}-1-oxo-2,3-dihydro-1H-isoindol-2-yl)piperidine-2,6-dione]: on WEE1, the “293T-LentiX WEE1-ePL Degradation 4 hr (Ymin)” value amounted to 28 and the DC50 was found to be 5.48 nM. In addition, in the assay with MKN45 cells, the concentration for a half-maximal effect (EC50) was 12.4 nM and the “MKN45 Cell Prolif. 120 hr (Ymin-Obs)” value is 7.52.

Take `CN1CCc2cc(CN3CC[C@H](Oc4ccc5c(c4)CN(C4CCC(=O)NC4=O)C5=O)C3)cnc2C1` (stereo partly drawn) [3-(5-{[(3S)-1-[(7-methyl-5,6,7,8-tetrahydro-1,7-naphthyridin-3-yl)methyl]pyrrolidin-3-yl]oxy}-1-oxo-2,3-dihydro-1H-isoindol-2-yl)piperidine-2,6-dione]: at WEE1, the “293T-LentiX WEE1-ePL Degradation 4 hr (Ymin)” value was determined as 34 and the DC50 was found to be 65.1 nM. Also, in the assay with MKN45 cells, the concentration for a half-maximal effect (EC50) was found to be 425 nM and the “MKN45 Cell Prolif. 120 hr (Ymin-Obs)” value was 11.9.

As for `CN1CCc2c(cncc2CN2CC[C@H](Oc3ccc4c(c3)CN(C3CCC(=O)NC3=O)C4=O)C2)C1` (stereo partly drawn) [3-(5-{[(3S)-1-[(7-methyl-5,6,7,8-tetrahydro-2,7-naphthyridin-4-yl)methyl]pyrrolidin-3-yl]oxy}-1-oxo-2,3-dihydro-1H-isoindol-2-yl)piperidine-2,6-dione], at WEE1, the “293T-LentiX WEE1-ePL Degradation 4 hr (Ymin)” value worked out at 68 and the DC50 worked out at 558 nM. Further, in the assay on MKN45 cells, the concentration for a half-maximal effect (EC50) was greater than 10000 nM and the “MKN45 Cell Prolif. 120 hr (Ymin-Obs)” value was determined as 84.06.

In the case of `Cc1ccc2cc(CN3CC[C@H](Oc4ccc5c(c4)CN(C4CCC(=O)NC4=O)C5=O)C3)ncc2c1` (stereo partly drawn) [3-(5-{[(3S)-1-[(7-methylisoquinolin-3-yl)methyl]pyrrolidin-3-yl]oxy}-1-oxo-2,3-dihydro-1H-isoindol-2-yl)piperidine-2,6-dione], on WEE1, the “293T-LentiX WEE1-ePL Degradation 4 hr (Ymin)” value is 32.315 and the DC50 is 12.2 nM. In the assay on MKN45 cells, the EC50 worked out at 70.7 nM and the “MKN45 Cell Prolif. 120 hr (Ymin-Obs)” value worked out at 15.68.

For the compound `Cc1ccc2cc(CN3CC[C@H](Oc4ccc5c(c4)CN(C4CCC(=O)NC4=O)C5=O)C3)cc(F)c2n1` (stereo partly drawn) [3-(5-{[(3S)-1-[(8-fluoro-2-methylquinolin-6-yl)methyl]pyrrolidin-3-yl]oxy}-1-oxo-2,3-dihydro-1H-isoindol-2-yl)piperidine-2,6-dione], at WEE1, the “293T-LentiX WEE1-ePL Degradation 4 hr (Ymin)” value was determined as 25.35 and the DC50 came to 1.04 nM. Further, in the assay with MKN45 cells, the half-maximal effective concentration (EC50) was 3.2 nM and the “MKN45 Cell Prolif. 120 hr (Ymin-Obs)” value was determined as 7.555.

On to `O=C1CCC(N2Cc3cc(O[C@H]4CCN(Cc5cc6cccc(F)c6cn5)C4)ccc3C2=O)C(=O)N1` (stereo partly drawn) [3-(5-{[(3S)-1-[(8-fluoroisoquinolin-3-yl)methyl]pyrrolidin-3-yl]oxy}-1-oxo-2,3-dihydro-1H-isoindol-2-yl)piperidine-2,6-dione], for which, at WEE1, the “293T-LentiX WEE1-ePL Degradation 4 hr (Ymin)” value is listed as 30.295 and the DC50 was 5.32 nM. Also, in the assay on MKN45 cells, the half-maximal effective concentration (EC50) was 24.4 nM and the “MKN45 Cell Prolif. 120 hr (Ymin-Obs)” value is 10.49.

Regarding `CN1CCCc2cc(CN3CC[C@H](Oc4ccc5c(c4)CN(C4CCC(=O)NC4=O)C5=O)C3)cnc21` (stereo partly drawn) [3-(5-{[(3S)-1-[(8-methyl-5,6,7,8-tetrahydro-1,8-naphthyridin-3-yl)methyl]pyrrolidin-3-yl]oxy}-1-oxo-2,3-dihydro-1H-isoindol-2-yl)piperidine-2,6-dione], on WEE1, the “293T-LentiX WEE1-ePL Degradation 4 hr (Ymin)” value amounted to 58 and the DC50 is 19.1 nM. Besides, in the assay on MKN45 cells, the half-maximal effective concentration (EC50) is greater than 10000 nM and the “MKN45 Cell Prolif. 120 hr (Ymin-Obs)” value was 79.28.

For `Cc1cccc2cc(CN3CC[C@H](Oc4ccc5c(c4)CN(C4CCC(=O)NC4=O)C5=O)C3)ncc12` (stereo partly drawn) [3-(5-{[(3S)-1-[(8-methylisoquinolin-3-yl)methyl]pyrrolidin-3-yl]oxy}-1-oxo-2,3-dihydro-1H-isoindol-2-yl)piperidine-2,6-dione], on WEE1, the “293T-LentiX WEE1-ePL Degradation 4 hr (Ymin)” value was determined as 32.22 and the DC50 stood at 6.41 nM. Also, in the assay on MKN45 cells, the EC50 is 118 nM and the “MKN45 Cell Prolif. 120 hr (Ymin-Obs)” value was 19.68.

Consider `O=C1CCC(N2Cc3cc(O[C@H]4CCN(Cc5cc6ccccc6nn5)C4)ccc3C2=O)C(=O)N1` (stereo partly drawn) [3-(5-{[(3S)-1-[(cinnolin-3-yl)methyl]pyrrolidin-3-yl]oxy}-1-oxo-2,3-dihydro-1H-isoindol-2-yl)piperidine-2,6-dione], for which, at WEE1, the “293T-LentiX WEE1-ePL Degradation 4 hr (Ymin)” value was 26.03 and the DC50 came out at 12.5 nM. Also, in the assay on MKN45 cells, the EC50 amounted to 66.3 nM and the “MKN45 Cell Prolif. 120 hr (Ymin-Obs)” value amounted to 8.97.

For `O=C1CCC(N2Cc3cc(O[C@H]4CCN(Cc5ccc6nnccc6c5)C4)ccc3C2=O)C(=O)N1` (stereo partly drawn) [3-(5-{[(3S)-1-[(cinnolin-6-yl)methyl]pyrrolidin-3-yl]oxy}-1-oxo-2,3-dihydro-1H-isoindol-2-yl)piperidine-2,6-dione], at WEE1, the “293T-LentiX WEE1-ePL Degradation 4 hr (Ymin)” value worked out at 26.65 and the DC50 was 12.5 nM. In the assay on MKN45 cells, the concentration for a half-maximal effect (EC50) amounted to 32.8 nM and the “MKN45 Cell Prolif. 120 hr (Ymin-Obs)” value came out at 8.19.

For `O=C1CCC(N2Cc3cc(O[C@H]4CCN(Cc5cc6ccccc6cn5)C4)ccc3C2=O)C(=O)N1` (stereo partly drawn) [3-(5-{[(3S)-1-[(isoquinolin-3-yl)methyl]pyrrolidin-3-yl]oxy}-1-oxo-2,3-dihydro-1H-isoindol-2-yl)piperidine-2,6-dione], at WEE1, the “293T-LentiX WEE1-ePL Degradation 4 hr (Ymin)” value is 30.345 and the DC50 is 4.05 nM. In the assay on MKN45 cells, the EC50 worked out at 44.1 nM and the “MKN45 Cell Prolif. 120 hr (Ymin-Obs)” value is 13.47.
